Experimental findings from patent US7632814B2, “HYD1 peptides as anti-cancer agents” (University of South Florida, priority 2006, dated 2009) are described below.

What all share (assay type): cell-based
One experiment concerns MM1.S cells. The text has this:
FIGS. 4A-4E are a series of graphs showing that the BMS model protects myeloma MM1.S cells from melphalan (FIG. 4A), mitoxantrone (FIG. 4B), and dexamethasone (FIGS. 4C-4E) induced cell death. SF+A model confers the highest levels of resistance to cell death induced by either mitoxantrone or melphalan.
FIGS. 10A-10E are a series of graphs showing that the BMS model protects MM1.S cells from melphalan (FIG. 10A), mitoxantrone (FIG. 10B), dexamethasone (FIGS. 10C and 10D), and velcade (FIG. 10E) induced cell death.
The CAM-DR phenotype is tested by removing unadhered cells before the addition of drug. […] For this reason, the inventors chose to test for the reversal of drug resistance in adherent cells by using a bone marrow stroma (BMS) model (HS-5 cell line). In the BMS model of drug resistance, cell-cell adhesion is mediated by multiple adhesion moieties and thus the addition of a β1 blocking antibody is not sufficient to block tumor cell adhesion to the BMS cell line. The BMS model system is described in FIGS. 3A-D. These models have facilitated the availability of four discrete hematopoietic tumor populations. The first tumor population (FIG. 3A) is maintained in a traditional suspension culture in RPMI media containing 10% FBS (RM). Conditioned media is prepared by adding fresh RPMI media containing 10% FBS to HS-5 cells which are 75% confluent. After three hours, the media is then collected, centrifuged and stored at −70 for up to one month. This tumor cell culture condition is referred to as CM (FIG. 3B). The third tumor cell population consists of placing HS-5 cells in the bottom chamber and tumor cell in a top chamber that is separated by a membrane allowing for diffusion of soluble factors (see FIG. 3C). This condition is distinct from CM because it considers dynamic soluble interactions between the tumor cell and BMS cells (see FIG. 3D). […] Regardless of the cytotoxic agent used, the levels of drug resistance are greatest for myeloma cells which are adherent to the BMS. […]

The test system of the next experiment is H929 cells. Nature of the experiment: Detection of apoptosis, annexin V staining and FACS, suspension culture. Particulars: H929 cells, 200 μM ZVAD-FMK 30 minutes prior, apoptosis at 24 hours, annexin/PI. On the procedure:
(§1) FIG. 17 is a graph showing that HYD1 induces apoptosis as a single agent in 8226 and H929 cells cultured in suspension. 8226 and H929 cells were either treated with varying concentrations of HYD1 or vehicle control (equal volume sterile double distilled water) for 24 hours and apoptotic cells were detected by FACS analysis of annexin V positive cells. HYD1 specific apoptosis equals cell death due to peptide minus any apoptosis detected in control cells.
200 μM ZVAD-FMK was added to H929 cells for 30 minutes prior to the addition of either 75 μg/ml HYD1S or 15 μM Melphalan. Apoptosis was measured 24 hours after drug treatment by annexin/PI staining and apoptotic cells were detected by FACS analysis. Three independent experiments were performed and shown is a representative experiment.
Detection of Apoptosis. […] Blood, 1999; 93:1658-1667). The assay was performed in triplicate and 3 independent experiments were performed. Caspase 3 and 8 activity was measured at 6 and 24 hrs post peptide treatment per manufactures' instructions (BD Biosciences, San Jose, Calif.). The caspase assays were performed in triplicate and repeated twice.
(§2) Myeloma cells were plated at a density of 400,000 cells per ml in a 24 well plate. Cells were treated with the indicated dose of the peptide for 24 hours. Following 24 hrs of peptide exposure, apoptotic cells were detected using Annexin V staining and FACS analysis. Ten thousand events were analyzed by flow cytometry (Becton Dickinson, San Jose, Calif.). Experiments were performed in triplicate and repeated twice. Shown is a representative figure.

For experiment [1], the system named is primary myeloma patient specimens. Nature of the experiment: Melphalan-induced cell death in primary myeloma patient specimens, FN-adherent vs suspension. The text has this:
It has been reported that β1-integrin mediated adhesion of 8226 cells and K562 cells to FN blocked cell death induced by the alkylating agent melphalan (Damiano J S, et al. Blood. 1999; 93:1658-1667; Hazlehurst L A, et al. Cancer Res. 2003; 63:7900-7906). In order to determine whether the CAM-DR phenotype is a potential mechanism of clinical de novo drug resistance, melphalan-induced cell death was recently measured in primary myeloma patient specimens (See FIG. 2). Plasma cells were identified by either positive Kappa or Lambda staining, and apoptotic myeloma cells were identified by the Tunnel assay. 9 out of 10 patient specimens were protected from melphalan induced cell death when adherent to FN compared to suspension cultures.

Another experiment deals with prostate tumor cell. Nature of the experiment: Random haptotaxis (cell migration) on laminin 322 (laminin 5). As to conditions: scrambled peptide HYDS indicates 100% cell migration. An excerpt:
Defining the minimal region of HYD1 necessary to potentiate drug-induced apoptosis in suspension and adherent cultures is of interest. Below is a study to determine the minimal HYD1 sequence required to block prostate tumor cell migration. Similar studies as those outlined below and using the same peptide sequences will be used to determine the minimal amino acid sequence required for potentiation of drug induced apoptosis.
This response to the peptide is independent of disrupting adhesion to laminin 322 (laminin 5) since the cells were grown on a ligand before treatment with the peptide. […] All other alanine-substitution mutants resulted cell migration, i.e., a loss of peptide activity.
Using the negative control scrambled peptide, HYDS (SEQ ID NO:44), to indicate 100% cell migration, several truncated peptides including, ikmviswkg (SEQ ID NO:22), kmviswkg (SEQ ID NO:39), and kikmviswk (SEQ ID NO:37) were effective at blocking cell migration by approximately 50%.

The test system of the next experiment is ERK. Nature of the experiment: Activation of ERK signaling. Particulars: for activation of ERK: 10 minutes post-treatment. On the procedure:
HYD1, when introduced as a soluble ligand, completely blocks random hapotaxis on laminin 322 and enhanced cellular signals are coupled with the loss of cell motility. […] Using this endpoint as an indicator of HYD1 bioactivity, the truncated and alanine-substituted variants of HYD1 were tested for their ability to activate ERK. Activation of ERK at 10 minutes post-treatment was conserved with alanine-substitution only at the N-terminal lysine and C-terminal glycine (FIG. 16A-1). […] Taken together (FIG. 16C-2), the results (FIGS. 16A-1, 16A-2, 16B, 16C-1) indicate that activation of ERK signaling required ikmviswxx (SEQ ID NO:48).

In a further experiment the test system is 8226 cells. Nature of the experiment: Detection of apoptosis, annexin V staining and FACS, suspension culture. Particulars: 24 hours, annexin V. On the procedure: as §1
Detection of Apoptosis. A flow cytometric assay measuring Annexin V/PI staining was used to measure apoptotic cells following 24 hours of peptide exposure as previously described (Damiano J S et al. Blood, 1999; 93:1658-1667). The assay was performed in triplicate and 3 independent experiments were performed. Caspase 3 and 8 activity was measured at 6 and 24 hrs post peptide treatment per manufactures' instructions (BD Biosciences, San Jose, Calif.). The caspase assays were performed in triplicate and repeated twice.
as §2

Where no end group is shown, it is not given here. [ ]: non-standard residue; d: D form.

Take `N[C@@H](Cc1ccc(N(CCCl)CCCl)cc1)C(=O)O` [melphalan]: in the experiment with MM1.S cells, the “resistance to drug induced cell death conferred by HS-5 stromal layer in the BMS model” value (“resistance” for short) was “sufficient to confer resistance”. In the experiment with H929 cells, the “protection from induced cell death by pan caspase inhibitor ZVAD-FMK” value was “blocked the majority”. Besides, the “mean percent apoptosis of plasma cells adhered to FN” value in experiment [1] (200 μM melphalan, bone marrow aspirates, adhered to FN prior to treatment) was 27.7%. The “mean percent apoptosis of plasma cells in suspension cultures” value in experiment [1] (200 μM melphalan, suspension cultures) came to 55.6%. In addition, in experiment [1] (compared to suspension cultures, ten patients), the “patient specimens protected from melphalan induced cell death when adherent to FN” value was 9 out of 10.

In the case of `O=C1c2c(O)ccc(O)c2C(=O)c2c(NCCNCCO)ccc(NCCNCCO)c21` [mitoxantrone], the “resistance” value in the experiment on MM1.S cells was “sufficient to confer resistance”.

As to `CC(C)C[C@H](NC(=O)[C@H](Cc1ccccc1)NC(=O)c1cnccn1)B(O)O` [velcade], in the experiment with MM1.S cells, the “resistance” value is recorded as “sufficient to confer resistance”.

ikmviswkg (IKMVISWKG; HYD1 fragment): the blocking cell migration result in the experiment with prostate tumor cell was “approximately 50%”.

Take iswkg (ISWKG; HYD1 fragment): in the experiment on ERK, the “activation of ERK” value is given as “partial activation of ERK”.

For the compound kikmv (KIKMV; HYD1 fragment), in the experiment on ERK, the “ERK signal of N-terminal region compared with C-terminal region” value is recorded as “stronger signal than iswkg” and the “activation of ERK” value is listed as “partial activation of ERK”.

For the compound “kikmviswk ([dK][dI][dK][dM][dV][dI][dS][dW][dK]) [HYD1-g, C-terminus glycine deleted]”, the blocking cell migration entry in the experiment on prostate tumor cell is reported as “approximately 50%”. For the same compound, the “potency in inducing 8226 cell death compared to HYD1” value is on record as “increased potency” in the experiment with 8226 cells and “greater potency” with 8226 cells (listed as kikmviswk).

As for kmviswkg (KMVISWKG; HYD1 fragment), the blocking cell migration entry in the experiment with prostate tumor cell was “approximately 50%”.
